Where a name gives a salt, the structure may show the parent alone. Read-outs that look alike come from different tables or passages of the source.
Experiments:
DBA/2J mice = assay: Audiogenic seizure-sensitive mouse model of generalized convulsive seizures (AGS); type: in vivo; settings: challenge 1 h, 90% MC 0.5% + 10% PEG400, read-out: Seizure stage [% vs. vehicle]; for change in vivo at 30 mg/kg: 30 mg/kg po
Method: (§1) Formulation and Administration.
(§2) Compounds were formulated in a 10% polyethylene glycol 400 (PEG 400)/90% aqueous solution of 0.5% methylcellulose (MC 0.5%). Firstly drugs are dissolved in PEG 400 and then suspended in MC 0.5% for oral gavage at X mg/5 mL/kg (X see table).
Audiogenic Seizure-Sensitive Mouse Model of Generalized Convulsive Seizures
1. Procedure: Following two days of acclimatisation, auditory seizures are induced in male juvenile DBA/2J mice (22-24 days old). Each mouse is placed individually in the exposure chamber, an hemispheric acrylic glass dome (diameter: 50 cm) within a sound-attenuated box. The sound-attenuated box is equipped with two house lights and a camera system (Fire-I from Unibrain) in order to observe and record the behavioral seizure response. After 60 seconds of habituation, the stimulus, a mixed frequency tone of 15-20 kHz at 110 dB (SASLab Lite, Avisoft Bioacoustics), is played from a speaker that is placed on the top center of the dome. […] Seizures are classified as following: stage 0, normal behavior; stage 1, wild running; stage 2, generalized clonus; stage 3, tonic extension of the hind limbs.
2. Compounds testing: Acute compound effects on audiogenic generalized convulsive seizures are evaluated in independent groups of 8-10 mice randomly assigned. Following oral administration of compound or vehicle, the maximum seizure stage during sound exposure is assessed. Compounds are given 1 hour before exposure to the stimulus. Each mouse is exposed to the auditory stimulus only once and euthanized afterwards by CO2 inhalation.

[1] = test system: primary neuronal cultures from embryonic rat brains; assay: Rat oscillation assay (FLIPR, neuronal calcium oscillations); type: cell-based
Procedure, shortened: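 Cortical neurons from E18 Wistar rat embryos, cultured 8–10 days at high density, loaded with 1 μM Fluo-8 AM; calcium oscillations recorded by FLIPR once per second in Mg-free HBSS with 2 mM CaCl2, 20 mM HEPES, pH 7.4. Two acquisitions ("Acute", 500 sec, compound added at 250 sec; "20 min"), ± Kv7 blocker XE-991.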

Wistar rats = assay: Amygdala-kindling rat model; type: in vivo; settings: 1 mg/kg po, time of challenge 30 min, HCl salt, formulation 90% MC 0.5% + 10% PEG400
Method: as §1, §2
Amygdala-Kindling Rat Model:
1. Procedure: Adult male Wistar rats (Harlan Laboratories, Netherlands, or Charles Rivers, Germany; body weight 300-350 g) were stereotaxically implanted with twisted bipolar plastic-coated stainless steel electrode (MS333-2-BIU 10 mm, Plastics One) into the right basolateral amygdala under isoflurane anesthesia. To place the electrode, trepanations were made in the skull and the electrode was lowered into the right basolateral amygdala (from bregma: anteriorposterior (AP): −2.5 mm, medio-lateral (ML): −3.5 mm, dorso-ventral (DV): −8.6 mm; α=10°) and secured to the skull with screws and dental acrylate. After one week of recovery, they were handled daily and habituated over one week to the kindling set-up. Kindling procedure: For a kindling session each rat was placed individually into a smooth acrylic plastic, round-bottomed bowl (Ø 36 cm, height 36 cm, BASi movement-responsive caging system) and its intracranial implanted electrode was connected to the stimulator (STG4008, Multichannel Systems GmbH) and the recording devices (PowerLab 8/35, ADInstruments Ltd) via a cable (335-340/3 (C), Plastics One). For the kindling procedure, each rat was exposed once daily to an electrical stimulation and the behavioral symptoms of the evoked seizure were observed and classified according to the modified Racine scale (stage 0, arrest, wet dog shakes, normal behaviour; stage 1, facial twitches: nose, lips, eyes; stage 2, chewing, head nodding; stage 3, forelimb clonus; stage 4, rearing, falling on forelimbs; stage 5, rearing, falling on side or back, rolling). The electrical stimulus consists of a 1s-train of 50 Hz square-wave biphasic pulses of 1-ms duration at an intensity of 400 μA (suprathreshold intensity). […] Data Scoring and analysis. The duration of electroencephalographic seizures (afterdischarge, AD) was recorded using LabChart7 Pro software (ADlnstruments Ltd). Simultaneously, videos were recorded to evaluate seizure stage (SS).
2. Compound testing: Acute drug effects were evaluated in groups of 6-8 fully kindled rats in a randomized cross-over design with 48 h between drug and vehicle applications. Following oral administration of drug or vehicle, drug testing included determination of the afterdischarge threshold (the minimal stimulation intensity necessary to evoke an afterdischarge (electroencephalographically measured neuronal hyper-synchronous activity with an amplitude 2-times higher than baseline amplitude and a frequency of ≥1 Hz) of at least 3 sec duration) and monitoring electroencephalographic and behavioral correlates of the evoked seizure at ADT (afterdischarge threshold), including AD duration and SS, by a experimenter blind to treatment assignment.

[2] = Rattus norvegicus, 20 min, AUC of fluorescence measured 20 min after compound addition, read-out: FLIPR: IC50 [nM] 20 min
[3] = Rattus norvegicus, Acute phase, ratio of AUC fluorescence before and after compound addition, read-out: FLIPR: IC50 [nM] acute

SMILES	change in vivo at 30 mg/kg (DBA/2J mice) [%]	IC50 [1, 2] [nM]	IC50 [1, 3] [nM]	other results
O=C(NCc1cccc(OC(F)F)c1)NC1CC2(CC2)C1 [Example 155, 1-(3-Difluoromethoxy-benzyl)-3-spiro[2.3]hex-5-yl-urea]	-100	163	151	
CC(NC(=O)NC1CC2(CCC2)C1)c1ccnc(OC(F)F)c1 (racemic) [Example 100 (HCl salt), (±)-1-[1-(2-Difluoromethoxy-pyridin-4-yl)-ethyl]-3-spiro[3.3]hept-2-yl-urea]				change in vivo at 33 mg/kg (DBA/2J mice; 33 mg/kg po): -71%
C[C@H](NC(=O)NC1CC2(CCC2)C1)c1ccnc(OC(F)F)c1 (single isomer, unassigned) [Example 168]		3	3.7	AD duration [% vs veh] (Wistar rats): −84 % vs veh; Seizure stage [% vs veh] (Wistar rats): −58 % vs veh
C[C@H](NC(=O)NC1CC2(CCC2)C1)c1cc(OCC(F)(F)F)ncn1 (single isomer, unassigned) [Example 182]		13	11	change in vivo at 5 mg/kg (DBA/2J mice; 5 mg/kg po): -100%
O=C(NCc1ccnc(OCC(F)(F)F)c1)NC1CC2(C1)CC(F)(F)C2 [Example 160, 1-(6,6-Difluoro-spiro[3.3]hept-2-yl)-3-[2-(2,2,2-trifluoro-ethoxy)-pyridin-4-ylmethyl]-urea]	-100	253	83	
O=C(NCc1ccnc(OCC(F)(F)F)c1)NC1CC2(CC2)C1 [Example 159, 1-Spiro[2.3]hex-5-yl-3-[2-(2,2,2-trifluoro-ethoxy)-pyridin-4-ylmethyl]-urea]	-100	47	26	
COCC(Oc1cc(CNC(=O)NC2CC3(CCC3)C2)ccn1)C(F)(F)F (single isomer, unassigned) [Example 172, 1-Spiro[3.3]hept-2-yl-3-[2-(2,2,2-trifluoro-1-methoxymethyl-ethoxy)-pyridin-4-ylmethyl]-urea]	-81			IC50 ([1]; AUC of fluorescence measured 20 min after compound addition, read-out: FLIPR: IC50 [nM] 20 min): 37 nM; IC50 ([1]; Acute phase, ratio of AUC fluorescence before and after compound addition, read-out: FLIPR: IC50 [nM] acute): 38 nM
